Measured values from patent US20230133672A1, “FUSION POLYPEPTIDE COMPRISING GDF15 AND POLYPEPTIDE REGION CAPABLE OF O-GLYCOSYLATION” (LG CHEM, LTD., priority 2019, published 2023).

Test: Repeated administration: body weight change in DIO mice
Format: in vivo, Mouse, C57BL/6J-DIO
Procedure: The body weight of each mouse was measured on the day of the start of administration of the test substances (before administration), and thereafter, the body weight was measured every day ([…]), and the amount of the administration solution of the test substances was determined on the basis of the most recently measured body weight.
All the experimental results obtained in the present example were expressed as mean±standard error and tested using Prism5 (version 5.01). One-way analysis of variance (ANOVA) was performed on all data, and when significance was observed, Dunnett's test was performed to find out the test groups with a significant difference from the control group (significance level: two-sided 5% and 1%, 0.1%).
Except for the administration dose, animal number and administration cycle, most of the test processes were the same as in Example 2.1.1 above.
The test substances were administered twice a week (Days 0, 4, 7, 11, 14, 18, 21, 25) for a total of 8 times. For comparison, the control group in which the control substance Semaglutide was administered every day was prepared, and the comparison group in which Semaglutide was administered every day was administered once a day daily, and all the administration was progressed from 9 AM.

HT-ID3-GDF15: Fusion polypeptide: His-Tag, TEV cleavage site, three IgD hinges, GS linker, GDF15 (SEQ ID NO: 3)
Body Weight, Mean (Day 0, 3 nmol/kg twice a week): 100.0 % of initial | Body Weight, Mean (Day 0, 10 nmol/kg twice a week): 100.0 % of initial | Body Weight, Mean (Day 0, 30 nmol/kg twice a week): 100.0 % of initial | Body Weight, Mean (Day 1, 3 nmol/kg twice a week): 98.2 % of initial | Body Weight, Mean (Day 1, 10 nmol/kg twice a week): 98.5 % of initial | Body Weight, Mean (Day 1, 30 nmol/kg twice a week): 98.2 % of initial | Body Weight, Mean (Day 2, 3 nmol/kg twice a week): 96.9 % of initial | Body Weight, Mean (Day 2, 10 nmol/kg twice a week): 97.3 % of initial | Body Weight, Mean (Day 2, 30 nmol/kg twice a week): 97.1 % of initial | Body Weight, Mean (Day 3, 3 nmol/kg twice a week): 95.6 % of initial | Body Weight, Mean (Day 3, 10 nmol/kg twice a week): 95.7 % of initial | Body Weight, Mean (Day 3, 30 nmol/kg twice a week): 95.8 % of initial | Body Weight, Mean (Day 4, 3 nmol/kg twice a week): 94.4 % of initial | Body Weight, Mean (Day 4, 10 nmol/kg twice a week): 94.6 % of initial | Body Weight, Mean (Day 4, 30 nmol/kg twice a week): 94.8 % of initial | Body Weight, Mean (Day 5, 3 nmol/kg twice a week): 92.8 % of initial | Body Weight, Mean (Day 5, 10 nmol/kg twice a week): 92.8 % of initial | Body Weight, Mean (Day 5, 30 nmol/kg twice a week): 92.8 % of initial | Body Weight, Mean (Day 6, 3 nmol/kg twice a week): 91.9 % of initial | Body Weight, Mean (Day 6, 10 nmol/kg twice a week): 91.5 % of initial | Body Weight, Mean (Day 6, 30 nmol/kg twice a week): 91.7 % of initial | Body Weight, Mean (Day 7, 3 nmol/kg twice a week): 91.0 % of initial | Body Weight, Mean (Day 7, 10 nmol/kg twice a week): 90.7 % of initial | Body Weight, Mean (Day 7, 30 nmol/kg twice a week): 90.8 % of initial | Body Weight, Mean (Day 8, 3 nmol/kg twice a week): 90.0 % of initial | Body Weight, Mean (Day 8, 10 nmol/kg twice a week): 89.8 % of initial | Body Weight, Mean (Day 8, 30 nmol/kg twice a week): 89.8 % of initial | Body Weight, Mean (Day 9, 3 nmol/kg twice a week): 89.6 % of initial | Body Weight, Mean (Day 9, 10 nmol/kg twice a week): 89.3 % of initial | Body Weight, Mean (Day 9, 30 nmol/kg twice a week): 89.8 % of initial | Body Weight, Mean (Day 10, 3 nmol/kg twice a week): 89.1 % of initial | Body Weight, Mean (Day 10, 10 nmol/kg twice a week): 88.7 % of initial | Body Weight, Mean (Day 10, 30 nmol/kg twice a week): 89.7 % of initial | Body Weight, Mean (Day 11, 3 nmol/kg twice a week): 91.5 % of initial | Body Weight, Mean (Day 11, 10 nmol/kg twice a week): 90.9 % of initial | Body Weight, Mean (Day 11, 30 nmol/kg twice a week): 92.0 % of initial | Body Weight, Mean (Day 12, 3 nmol/kg twice a week): 91.5 % of initial | Body Weight, Mean (Day 12, 10 nmol/kg twice a week): 89.8 % of initial | Body Weight, Mean (Day 12, 30 nmol/kg twice a week): 90.0 % of initial | Body Weight, Mean (Day 13, 3 nmol/kg twice a week): 92.3 % of initial | Body Weight, Mean (Day 13, 10 nmol/kg twice a week): 90.1 % of initial | Body Weight, Mean (Day 13, 30 nmol/kg twice a week): 90.4 % of initial | Body Weight, Mean (Day 14, 3 nmol/kg twice a week): 92.5 % of initial | Body Weight, Mean (Day 14, 10 nmol/kg twice a week): 91.0 % of initial | Body Weight, Mean (Day 14, 30 nmol/kg twice a week): 90.9 % of initial | Body Weight, Mean (Day 15, 3 nmol/kg twice a week): 92.6 % of initial | Body Weight, Mean (Day 15, 10 nmol/kg twice a week): 90.0 % of initial | Body Weight, Mean (Day 15, 30 nmol/kg twice a week): 89.3 % of initial | Body Weight, Mean (Day 16, 3 nmol/kg twice a week): 93.3 % of initial | Body Weight, Mean (Day 16, 10 nmol/kg twice a week): 91.2 % of initial | Body Weight, Mean (Day 16, 30 nmol/kg twice a week): 89.6 % of initial | Body Weight, Mean (Day 17, 3 nmol/kg twice a week): 94.0 % of initial | Body Weight, Mean (Day 17, 10 nmol/kg twice a week): 91.8 % of initial | Body Weight, Mean (Day 17, 30 nmol/kg twice a week): 90.4 % of initial | Body Weight, Mean (Day 18, 3 nmol/kg twice a week): 94.4 % of initial | Body Weight, Mean (Day 18, 10 nmol/kg twice a week): 92.3 % of initial | Body Weight, Mean (Day 18, 30 nmol/kg twice a week): 91.0 % of initial | Body Weight, Mean (Day 19, 3 nmol/kg twice a week): 95.0 % of initial | Body Weight, Mean (Day 19, 10 nmol/kg twice a week): 91.9 % of initial | Body Weight, Mean (Day 19, 30 nmol/kg twice a week): 90.0 % of initial | Body Weight, Mean (Day 20, 3 nmol/kg twice a week): 95.2 % of initial | Body Weight, Mean (Day 20, 10 nmol/kg twice a week): 91.2 % of initial | Body Weight, Mean (Day 20, 30 nmol/kg twice a week): 89.6 % of initial | Body Weight, Mean (Day 21, 3 nmol/kg twice a week): 95.8 % of initial | Body Weight, Mean (Day 21, 10 nmol/kg twice a week): 92.1 % of initial | Body Weight, Mean (Day 21, 30 nmol/kg twice a week): 90.4 % of initial | Body Weight, Mean (Day 22, 3 nmol/kg twice a week): 96.4 % of initial | Body Weight, Mean (Day 22, 10 nmol/kg twice a week): 92.1 % of initial | Body Weight, Mean (Day 22, 30 nmol/kg twice a week): 90.0 % of initial | Body Weight, Mean (Day 23, 3 nmol/kg twice a week): 97.1 % of initial | Body Weight, Mean (Day 23, 10 nmol/kg twice a week): 92.5 % of initial | Body Weight, Mean (Day 23, 30 nmol/kg twice a week): 90.0 % of initial | Body Weight, Mean (Day 24, 3 nmol/kg twice a week): 97.4 % of initial | Body Weight, Mean (Day 24, 10 nmol/kg twice a week): 93.2 % of initial | Body Weight, Mean (Day 24, 30 nmol/kg twice a week): 91.0 % of initial | Body Weight, Mean (Day 25, 3 nmol/kg twice a week): 97.6 % of initial | Body Weight, Mean (Day 25, 10 nmol/kg twice a week): 93.7 % of initial | Body Weight, Mean (Day 25, 30 nmol/kg twice a week): 91.5 % of initial | Body Weight, Mean (Day 26, 3 nmol/kg twice a week): 98.5 % of initial | Body Weight, Mean (Day 26, 10 nmol/kg twice a week): 94.2 % of initial | Body Weight, Mean (Day 26, 30 nmol/kg twice a week): 91.5 % of initial | Body Weight, Mean (Day 27, 3 nmol/kg twice a week): 98.0 % of initial | Body Weight, Mean (Day 27, 10 nmol/kg twice a week): 94.4 % of initial | Body Weight, Mean (Day 27, 30 nmol/kg twice a week): 91.2 % of initial | Body Weight, Mean (Day 28, 3 nmol/kg twice a week): 98.6 % of initial | Body Weight, Mean (Day 28, 10 nmol/kg twice a week): 94.1 % of initial | Body Weight, Mean (Day 28, 30 nmol/kg twice a week): 91.4 % of initial
